Measurements: patent publication US20150328193A1, “TREATMENT OF MTOR HYPERACTIVE RELATED DISEASES AND DISORDERS” (THE BRIGHAM AND WOMEN'S HOSPITAL, INC., priority 2012, published 2015)
Counter-ions that a name gives are not always drawn.

Key:
[1] = system: 621-101 cells (TSC2-null, derived from a LAM patient); assay: High-throughput screen of known bioactives in 621-101 cells, ATP levels ([…] GLO) as cell viability, with or without rapamycin pretreatment; format: cell-based, human; details: for Inducing cell death in TSC2-null LAM cells as single agent: used individually in the absence of rapamycin; for Synergy with rapamycin to bring about apoptosis in TSC2-null LAM cells: combination with rapamycin; for Normalized ATP levels drug alone (A) / Normalized ATP levels rapa + drug (B): 621-101 cells, 48-72 h; for Normalized ATP levels drug alone (A): DMSO pretreatment; for Normalized ATP levels rapa + drug (B): rapamycin (20 nM) pretreatment two hours plus drug; for ATP Fold Change (B):(A): ratio of rapa + drug to drug alone
Experimental: Rapamycin was used at 20 nM and the screen compounds at 20 uM.
Cells are then pretreated with either Rapamycin (20 nM) or DMSO control in duplicate for two hours. Compound libraries are then added at the ICCB and allowed to incubate for 48-72 h. […] Treatment with staurosporine (1-2 uM) represents a positive control for cell death.
The inventors screened the Known Bioactives Collection at the ICCB which consists of approximately 7,000 compounds.

JAK2 kinase = JAK2 kinase (Homo sapiens, UniProt O60674); details: in vitro; cited from earlier work
TrkA = TrkA (Homo sapiens, UniProt P04629); details: cited from earlier work
Aurora-A = target: T1, Aurora-A (Homo sapiens, UniProt O14965); details: cited from earlier work
T1 sequence (O14965 1-403): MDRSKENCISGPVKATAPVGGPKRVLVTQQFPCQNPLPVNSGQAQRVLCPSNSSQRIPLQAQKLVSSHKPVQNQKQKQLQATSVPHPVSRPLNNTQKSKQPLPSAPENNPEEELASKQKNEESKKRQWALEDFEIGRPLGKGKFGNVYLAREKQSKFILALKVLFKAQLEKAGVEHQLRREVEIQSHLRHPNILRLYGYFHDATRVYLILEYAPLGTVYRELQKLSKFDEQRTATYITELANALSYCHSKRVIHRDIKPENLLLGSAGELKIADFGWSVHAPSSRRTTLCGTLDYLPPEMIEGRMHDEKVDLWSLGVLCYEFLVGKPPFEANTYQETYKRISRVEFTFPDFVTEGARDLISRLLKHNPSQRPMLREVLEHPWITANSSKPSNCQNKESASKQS

FAK = FAK (Homo sapiens, UniProt Q05397); details: cited from earlier work
621-101 cells = assay: Follow-up imaging of cell death/proliferation in 621-101 cells; format: cell-based, human
Experimental: 621-101 cells were pretreated for two hours with either DMSO (top two panels) or rapamycin (20 nM) bottom two panels) followed by the addition of fresh DMSO (top left), fresh rapamycin (bottom left), chelerythrine chloride (1 uM, top right), or rapamycin and chelerythrine chloride (bottom right). […] 4× magnification.

[2] = system: Tsc2-null mouse embryonic fibroblasts (MEFs); assay: Chelerythrine chloride treatment of Tsc2-null mouse embryonic fibroblasts; format: cell-based; details: 10 uM, 30 hours
[3] = system: wild-type mouse embryonic fibroblasts (MEFs); assay: Chelerythrine chloride treatment of wild-type mouse embryonic fibroblasts; format: cell-based; details: 10 uM, 30 hours
protein kinase C (PKC) = details: cited from earlier work
[4] = system: ELT3-V3 (TSC2-deficient) cells; assay: Paroxetine treatment of ELT3-V3 (TSC2-deficient) versus ELT3-T3 (re-expressing TSC2) cells; format: cell-based, Eker rat; design: dose or concentration left out as unconfirmed; details: 24 hrs
Experimental: […] TSC2-deficient uterine leiomyoma cells derived from the Eker rat model of TSC, ELT3-V3 (TSC2-deficient) and ELT3-T3 (re-expressing TSC2) were treated with […] of DMSO or Paxil for 24 hrs.

[5] = Rapamycin 20 nM, screen compounds 20 uM

JAK2 kinase, sequence (O60674 whole entry): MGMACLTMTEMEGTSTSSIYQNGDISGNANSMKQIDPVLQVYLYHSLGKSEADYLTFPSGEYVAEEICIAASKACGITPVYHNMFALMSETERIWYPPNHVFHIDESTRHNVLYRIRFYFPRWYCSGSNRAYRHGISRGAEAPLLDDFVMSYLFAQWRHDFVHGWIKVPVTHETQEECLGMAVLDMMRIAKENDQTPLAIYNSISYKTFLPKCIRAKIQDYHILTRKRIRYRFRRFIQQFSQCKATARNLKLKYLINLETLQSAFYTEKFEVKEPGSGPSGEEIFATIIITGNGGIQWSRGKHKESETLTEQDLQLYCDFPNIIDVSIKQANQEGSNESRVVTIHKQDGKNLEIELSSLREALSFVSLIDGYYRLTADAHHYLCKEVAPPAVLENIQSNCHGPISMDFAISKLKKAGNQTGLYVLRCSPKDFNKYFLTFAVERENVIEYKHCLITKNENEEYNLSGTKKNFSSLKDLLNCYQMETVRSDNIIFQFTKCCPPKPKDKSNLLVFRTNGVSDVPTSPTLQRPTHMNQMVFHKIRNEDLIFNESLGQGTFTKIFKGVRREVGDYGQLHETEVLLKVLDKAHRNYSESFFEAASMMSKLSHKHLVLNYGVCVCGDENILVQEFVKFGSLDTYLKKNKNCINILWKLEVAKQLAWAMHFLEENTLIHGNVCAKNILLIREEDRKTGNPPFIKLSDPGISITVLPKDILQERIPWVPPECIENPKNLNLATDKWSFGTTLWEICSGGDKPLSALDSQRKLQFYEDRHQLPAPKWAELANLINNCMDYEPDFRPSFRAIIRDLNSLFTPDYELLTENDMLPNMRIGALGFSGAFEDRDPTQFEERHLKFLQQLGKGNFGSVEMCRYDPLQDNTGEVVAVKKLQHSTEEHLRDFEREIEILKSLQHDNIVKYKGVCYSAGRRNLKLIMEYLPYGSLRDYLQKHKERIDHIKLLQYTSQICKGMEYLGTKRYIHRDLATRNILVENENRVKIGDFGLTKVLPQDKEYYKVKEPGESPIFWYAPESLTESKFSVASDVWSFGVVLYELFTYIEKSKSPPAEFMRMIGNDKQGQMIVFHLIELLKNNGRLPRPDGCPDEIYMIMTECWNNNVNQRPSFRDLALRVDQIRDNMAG
TrkA, sequence (P04629 33-796, species assumed): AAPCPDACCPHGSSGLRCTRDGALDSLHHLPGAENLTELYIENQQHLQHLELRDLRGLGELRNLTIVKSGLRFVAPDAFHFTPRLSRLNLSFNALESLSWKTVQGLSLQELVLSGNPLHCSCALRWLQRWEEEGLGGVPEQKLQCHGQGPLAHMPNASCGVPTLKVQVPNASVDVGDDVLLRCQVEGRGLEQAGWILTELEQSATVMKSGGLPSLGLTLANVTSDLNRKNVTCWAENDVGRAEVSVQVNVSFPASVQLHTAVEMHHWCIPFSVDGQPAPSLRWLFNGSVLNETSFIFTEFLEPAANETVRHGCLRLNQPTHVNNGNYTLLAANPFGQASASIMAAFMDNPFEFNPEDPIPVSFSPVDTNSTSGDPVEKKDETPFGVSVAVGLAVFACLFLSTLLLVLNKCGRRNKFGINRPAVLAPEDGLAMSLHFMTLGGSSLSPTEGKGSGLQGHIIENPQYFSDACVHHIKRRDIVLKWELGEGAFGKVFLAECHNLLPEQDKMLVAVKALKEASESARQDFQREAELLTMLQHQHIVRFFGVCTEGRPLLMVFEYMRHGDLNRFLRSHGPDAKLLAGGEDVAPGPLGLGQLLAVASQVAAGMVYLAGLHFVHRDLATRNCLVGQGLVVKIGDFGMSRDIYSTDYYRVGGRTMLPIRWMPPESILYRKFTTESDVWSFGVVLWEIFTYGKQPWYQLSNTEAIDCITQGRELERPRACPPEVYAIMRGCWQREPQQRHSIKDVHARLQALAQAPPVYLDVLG
FAK, sequence (Q05397 whole entry, species assumed): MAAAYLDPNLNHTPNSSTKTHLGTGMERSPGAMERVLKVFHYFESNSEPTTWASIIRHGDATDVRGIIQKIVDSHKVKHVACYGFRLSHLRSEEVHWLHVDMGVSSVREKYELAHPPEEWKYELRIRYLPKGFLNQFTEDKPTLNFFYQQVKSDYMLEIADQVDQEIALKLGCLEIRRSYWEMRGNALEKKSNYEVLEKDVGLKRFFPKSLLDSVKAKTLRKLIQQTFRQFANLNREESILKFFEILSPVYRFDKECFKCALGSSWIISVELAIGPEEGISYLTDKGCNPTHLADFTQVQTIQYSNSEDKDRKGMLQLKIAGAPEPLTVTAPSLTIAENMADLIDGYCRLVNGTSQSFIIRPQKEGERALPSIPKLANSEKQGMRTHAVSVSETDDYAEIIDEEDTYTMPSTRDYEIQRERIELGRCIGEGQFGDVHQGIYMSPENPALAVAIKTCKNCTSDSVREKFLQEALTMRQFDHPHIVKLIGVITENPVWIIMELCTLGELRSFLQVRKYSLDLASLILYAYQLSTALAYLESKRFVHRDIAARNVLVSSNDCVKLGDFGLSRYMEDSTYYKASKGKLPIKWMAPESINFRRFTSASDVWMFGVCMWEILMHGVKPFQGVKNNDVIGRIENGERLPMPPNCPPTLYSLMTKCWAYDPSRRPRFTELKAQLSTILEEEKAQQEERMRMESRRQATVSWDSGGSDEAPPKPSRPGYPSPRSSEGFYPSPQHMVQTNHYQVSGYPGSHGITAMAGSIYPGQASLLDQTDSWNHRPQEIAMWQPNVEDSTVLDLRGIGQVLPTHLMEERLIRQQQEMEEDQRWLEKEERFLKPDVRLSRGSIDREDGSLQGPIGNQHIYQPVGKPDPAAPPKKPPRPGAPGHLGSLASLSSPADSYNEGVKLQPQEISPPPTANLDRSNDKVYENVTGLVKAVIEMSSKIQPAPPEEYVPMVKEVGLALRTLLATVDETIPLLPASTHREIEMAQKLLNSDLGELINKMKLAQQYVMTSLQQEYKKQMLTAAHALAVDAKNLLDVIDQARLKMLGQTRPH

CNCCC(Oc1ccc(C(F)(F)F)cc1)c1ccccc1 (racemic) [fluoxetine, (RS)-N-methyl-3-phenyl-3-[4-(trifluoromethyl)phenoxy]propan-1-amine]
Inducing cell death in TSC2-null LAM cells as single agent [1]: surprisingly effective at inducing cell death

NC[C@@H]1O[C@H](C23CC4CC(CC(C4)C2)C3)Cc2c1ccc(O)c2O [A-77636]
Inducing cell death in TSC2-null LAM cells as single agent [1]: surprisingly effective at inducing cell death

Cc1cc(Nc2nc(N[C@@H](C)c3ccc(F)cc3)c(C#N)cc2F)n[nH]1 [AZ-960]
Synergize with rapamycin to cause cell death / decrease ATP levels (confirmed hits) [1, 5]: confirmed as hits | Synergy with rapamycin to bring about apoptosis in TSC2-null LAM cells [1]: worked synergistically with rapamycin | Ki (JAK2 kinase): 0.45 nM | IC50 (TrkA): ~100 nM | IC50 (Aurora-A): ~100 nM | IC50 (FAK): ~100 nM

CCC1(c2ccc(N)cc2)CCC(=O)NC1=O (centres unmarked) [Aminoglutethimide]
Normalized ATP levels drug alone (A) [1]: 0.474 | Normalized ATP levels rapa + drug (B) [1]: 1.264 | ATP Fold Change (B):(A) [1]: 2.7 (Anticonvulsant) | Inducing cell death in TSC2-null LAM cells as single agent [1]: surprisingly effective at inducing cell death

O=C(Nc1cccc(Nc2ncc(Br)c(NCCc3cnc[nH]3)n2)c1)N1CCCC1 [BX912, N-(3-(4-(2-(1H-imidazol-5-yl)ethylamino)-5-bromopyrimidin-2-ylamino)phenyl)pyrrolidine-1-carboxamide]
Synergy with rapamycin to bring about apoptosis in TSC2-null LAM cells [1]: worked synergistically with rapamycin

CC(C)NCC(O)COc1ccc(CCOCC2CC2)cc1 (centres unmarked) [Betaxolol HCl]
Normalized ATP levels drug alone (A) [1]: 0.487 | Normalized ATP levels rapa + drug (B) [1]: 1.27 | ATP Fold Change (B):(A) [1]: 2.6 (β blocker) | Inducing cell death in TSC2-null LAM cells as single agent [1]: surprisingly effective at inducing cell death

OCCN1CCN(CC/C=C2/c3ccccc3Sc3ccc(C(F)(F)F)cc32)CC1 [Flupenthixol 2HCl]
Normalized ATP levels drug alone (A) [1]: 0.273 | Normalized ATP levels rapa + drug (B) [1]: 0.776 | ATP Fold Change (B):(A) [1]: 2.8 (Anti-psychotic) | Inducing cell death in TSC2-null LAM cells as single agent [1]: surprisingly effective at inducing cell death

OCCN1CCN(CCCN2c3ccccc3Sc3ccc(C(F)(F)F)cc32)CC1 [Fluphenazine 2HCl]
Normalized ATP levels drug alone (A) [1]: 0.069 | Normalized ATP levels rapa + drug (B) [1]: 0.191 | ATP Fold Change (B):(A) [1]: 2.8 (Anti-psychotic) | Inducing cell death in TSC2-null LAM cells as single agent [1]: surprisingly effective at inducing cell death

CCC1(c2ccccc2)NC(=O)N(C)C1=O (centres unmarked) [Mephenytoin]
Normalized ATP levels drug alone (A) [1]: 0.425 | Normalized ATP levels rapa + drug (B) [1]: 1.17 | ATP Fold Change (B):(A) [1]: 2.8 (Anticonvulsant) | Inducing cell death in TSC2-null LAM cells as single agent [1]: surprisingly effective at inducing cell death

CN(C)CCOc1ccc(-c2nc(-c3ccncc3)c(-c3ccc4c(c3)CC/C4=N\O)[nH]2)cc1 [SB-590885]
Synergize with rapamycin to cause cell death / decrease ATP levels (confirmed hits) [1, 5]: confirmed as hits | Synergy with rapamycin to bring about apoptosis in TSC2-null LAM cells [1]: worked synergistically with rapamycin

C/N=c1\nc(-c2ccccc2)n(-c2ccccc2)s1 [SCH-202676 hydrobromide, (N-(2,3-diphenyl-1,2,4-thiadiazol-5-(2H)-ylidene)methanamine) hydrobromide]
Synergize with rapamycin to cause cell death / decrease ATP levels (confirmed hits) [1, 5]: confirmed as hits | Synergy with rapamycin to bring about apoptosis in TSC2-null LAM cells [1]: worked synergistically with rapamycin

OCc1cc(C(O)CNCCCCCCOCCCCc2ccccc2)ccc1O (centres unmarked) [Salmeterol]
Normalized ATP levels drug alone (A) [1]: 0.184 | Normalized ATP levels rapa + drug (B) [1]: 0.456 | ATP Fold Change (B):(A) [1]: 2.5 (β blocker) | Inducing cell death in TSC2-null LAM cells as single agent [1]: surprisingly effective at inducing cell death

C[CH2][Hg][S]c1ccccc1C(=O)[O-].[Na+] [Thimerosal, Ethyl(2-mercaptobenzoato-(2-)-O,S) mercurate(1-) sodium]
Synergy with rapamycin to bring about apoptosis in TSC2-null LAM cells [1]: worked synergistically with rapamycin

COc1ccc2c(c1)CC[C@@H]1[C@@H]2CC[C@]2(C)[C@@H](NCCCCCCN3C(=O)CCC3=O)CC[C@@H]12 [U-73343, 1-[6-[((17β)-3-Methoxyestra-1,3,5[10]-trien-17-yl)amino]hexyl]-2,5-pyrrolidinedione]
Synergy with rapamycin to bring about apoptosis in TSC2-null LAM cells [1]: worked synergistically with rapamycin

COc1ccc2c(c[n+](C)c3c4cc5c(cc4ccc23)OCO5)c1OC [chelerythrine chloride]
Effect alone versus in combination with rapamycin (single agent potential) [1, 5]: protected by rapamycin | Inducing cell death in TSC2-null LAM cells as single agent [1]: surprisingly effective at inducing cell death | Effect on 621-101 cells in combination with rapamycin (621-101 cells; 24 h, 1 uM, rapamycin 20 nM pretreatment two hours): effect on cells is reduced | 621-101 cell proliferation (621-101 cells; 24 h post drug exposure, 1 uM, DMSO pretreatment): inhibits 621-101 cell proliferation | 621-101 cell proliferation (621-101 cells; 96 h post drug exposure): inhibits 621-101 cell proliferation | Effect on Tsc2-null MEFs [2]: dramatic effect | Selectivity for Tsc2-null versus wild-type MEFs [2]: selective to Tsc2-null cells | Effect on wild-type MEFs [3]: minimal effect | IC50 (protein kinase C (PKC)): 660 nM

CO[C@@H](C(=O)N1Cc2[nH]nc(NC(=O)c3ccc(N4CCN(C)CC4)cc3)c2C1)c1ccccc1 [danusertib (PHA-739358)]
Synergize with rapamycin to cause cell death / decrease ATP levels (confirmed hits) [1, 5]: confirmed as hits | Synergy with rapamycin to bring about apoptosis in TSC2-null LAM cells [1]: worked synergistically with rapamycin

C[C@H](CCC(=O)O)C[C@H](C)C[C@H](C)C(=O)/C=C(\O)[C@H](C)C[C@H](C)C/C=C/[C@@H](C)[C@@H](O)[C@@H](C)[C@@H](O)C[C@@H]1CC[C@@](C)([C@H]2CC[C@@](C)([C@@H](C)O)O2)O1 [ionomycin]
Synergy with rapamycin to bring about apoptosis in TSC2-null LAM cells [1]: worked synergistically with rapamycin

COC(=O)C1=C(C)NC(C)=C(C(=O)OCCN(C)Cc2ccccc2)C1c1cccc([N+](=O)[O-])c1 (centres unmarked) [nicardipine]
Synergy with rapamycin to bring about apoptosis in TSC2-null LAM cells [1]: worked synergistically with rapamycin

CNCCC=C1c2ccccc2CCc2ccccc21 [nortriptyline, 3-(10,11-dihydro-5H-dibenzo[a,d]cyclohepten-5-ylidene)-N-methyl-1-propanamine]
Inducing cell death in TSC2-null LAM cells as single agent [1]: surprisingly effective at inducing cell death

Fc1ccc([C@@H]2CCNC[C@H]2COc2ccc3c(c2)OCO3)cc1 [paroxetine, (3S,4R)-3-[(2H-1,3-benzodioxol-5-yloxy)methyl]-4-(4-fluorophenyl)piperidine]
Inducing cell death in TSC2-null LAM cells as single agent [1]: surprisingly effective at inducing cell death | Apoptosis of ELT3-V3 (TSC2-deficient) cells [4]: susceptible to Paxil induced apoptosis | Selectivity for TSC2-deficient ELT3-V3 versus ELT3-T3 cells [4]: selective to Tsc2-null cells

CO[C@H]1C[C@@H]2CC[C@@H](C)[C@@](O)(O2)C(=O)C(=O)N2CCCC[C@H]2C(=O)O[C@H]([C@H](C)C[C@@H]2CC[C@@H](O)[C@H](OC)C2)CC(=O)[C@H](C)/C=C(\C)[C@@H](O)[C@@H](OC)C(=O)[C@H](C)C[C@H](C)/C=C/C=C/C=C/1C [rapamycin]
Cell death in 621-101 cells (621-101 cells; FIG. 1): does not induce cell death

CN1CCN(CCCN2c3ccccc3Sc3ccc(C(F)(F)F)cc32)CC1 [trifluoperazine, 10-[3-(4-methylpiperazin-l-yl)propyl]-2-(trifluoromethyl)-10H-phenothiazine]
Inducing cell death in TSC2-null LAM cells as single agent [1]: surprisingly effective at inducing cell death

(7R)-7-(Acetyloxy)-4-hydroxy-N,N,N-trimethyl-3,5,9-trioxa-4-phosphapentacosan-1-aminium-4-oxide [PAF C16]
Synergy with rapamycin to bring about apoptosis in TSC2-null LAM cells [1]: worked synergistically with rapamycin
